Measurements from patent US9657034B2, “Substituted furo[3,2-c]pyridines, thieno[3,2-c]pyridines, thieno[2,3-d]pyridazines and pyrido[3,4-d]pyridazines as phosphodiesterase type 10A inhibitors” (AbbVie Deutschland GmbH & Co. KG, priority 2011, dated 2017).

What was measured:
[1] = biological target: T1, PDE10A (human) (Homo sapiens, UniProt Q9Y233); experiment: Measurement of PDE activity (HTRF cAMP kit), PDE10A human; format: biochemical; conditions: Table 1
T1 construct: purchased BPS Bioscience
Protocol: The recombinant PDE proteins are used in in vitro enzymatic reaction for measurement of PDE activity. These recombinant proteins, including PDE10A (human, rat and mouse PDE10) and isoforms of PDEs 1, 3, 4, and 5, were purchased from commercial vendor BPS Bioscience. The enzymatic activity of PDEs was determined by cAMP measurement kit from CisBio (IBA) using HTRF technology.
The PDE enzymatic reaction was carried out in assay buffer (20 mM Tris-HCl pH7.5, 10 mM MgCl2, 0.1% bovine serum albumin) containing enzyme and substrate. The PDE enzymes concentration ranged from 10 pM-250 pM, depending on each enzyme's specific activity. The substrate cyclic nucleotide (cAMP or cGMP) concentration used in the assay was 20 nM for PDE10, and 100 nM for other PDEs. The inhibitory effect of compound was determined by incubating various concentration of inhibitor in the enzymatic assay. Typically, compound was serial diluted in DMSO then further diluted in assay buffer. Next, the compound at varying concentration was mixed with PDE enzyme. The reaction was initiated by addition of cyclic nucleotide substrate, and incubated for 60 minutes at 29 C. The reaction was stopped by addition of lysis buffer from assay kit. The cAMP-d2 and anti-cAMP cryptate in the lysis buffer detected the level of cAMP left from the PDE hydrolysis reaction. […]

[2] = tested on: rats; conditions: cited from earlier work
[3] = tested on: rats; conditions: cited from earlier work; remark: listed apart in the source
[4] = tested on: rats; conditions: cited from earlier work; remark: listed apart in the source

T1 sequence (Q9Y233 whole entry): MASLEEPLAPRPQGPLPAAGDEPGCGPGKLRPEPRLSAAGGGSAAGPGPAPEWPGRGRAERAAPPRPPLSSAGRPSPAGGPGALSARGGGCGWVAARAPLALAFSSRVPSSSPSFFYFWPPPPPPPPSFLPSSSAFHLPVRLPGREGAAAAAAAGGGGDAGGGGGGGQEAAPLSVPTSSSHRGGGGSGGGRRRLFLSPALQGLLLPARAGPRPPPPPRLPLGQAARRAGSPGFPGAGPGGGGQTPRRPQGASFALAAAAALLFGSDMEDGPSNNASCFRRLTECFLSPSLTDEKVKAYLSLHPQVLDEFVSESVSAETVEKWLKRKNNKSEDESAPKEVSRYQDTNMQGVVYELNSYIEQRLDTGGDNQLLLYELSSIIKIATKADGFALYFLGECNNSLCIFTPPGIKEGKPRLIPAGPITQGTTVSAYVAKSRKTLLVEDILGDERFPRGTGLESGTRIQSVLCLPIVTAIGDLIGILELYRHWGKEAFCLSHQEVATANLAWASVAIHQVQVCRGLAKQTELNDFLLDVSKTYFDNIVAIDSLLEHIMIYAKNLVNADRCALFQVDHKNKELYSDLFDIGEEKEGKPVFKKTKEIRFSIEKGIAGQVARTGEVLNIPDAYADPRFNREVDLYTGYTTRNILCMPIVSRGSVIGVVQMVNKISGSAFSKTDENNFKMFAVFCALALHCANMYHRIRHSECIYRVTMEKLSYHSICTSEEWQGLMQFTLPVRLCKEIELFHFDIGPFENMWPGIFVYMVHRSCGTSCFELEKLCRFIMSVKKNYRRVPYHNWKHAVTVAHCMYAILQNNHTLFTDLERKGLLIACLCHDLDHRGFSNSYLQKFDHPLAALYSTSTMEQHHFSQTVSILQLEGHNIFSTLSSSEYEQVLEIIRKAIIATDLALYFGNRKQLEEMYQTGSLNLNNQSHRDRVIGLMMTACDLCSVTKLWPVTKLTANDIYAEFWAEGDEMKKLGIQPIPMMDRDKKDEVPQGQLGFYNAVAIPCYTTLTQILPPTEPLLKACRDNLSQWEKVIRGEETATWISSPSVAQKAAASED

IC50 [1] | Molecule | catalepsy on its own ([2]; papaverine alone) | cataleptic effect of the D2 receptor antagonist haloperidol ([2]; together with haloperidol) | hyperactivity in rats induced by PCP [3] | reduction of amphetamine-induced hyperactivity [4]
< 100 nM | O=c1c2cccc(-c3cccc(O)c3)c2cnn1CCc1ccc2ccccc2n1 [Example 220, 5-(3-hydroxyphenyl)-2-[2-(quinolin-2-yl)ethyl]phthalazin-1(2H)-one] | – | – | – | –
– | COc1ccc(Cc2nccc3cc(OC)c(OC)cc23)cc1OC [Papaverine, papaverine] | did not cause catalepsy | potentiated the cataleptic effect | reduced hyperactivity | insignificant
< 100 nM | anti 8-((3 S)-3-hydroxypiperidin-1-yl)-2-(2-(quinolin-2-yl)cyclopropyl)isoquinolin-1(2H)-one (2E)-but-2-enedioate [Example 244] | – | – | – | –
